A word on the CC50: it is the concentration that lowers cell viability or growth by half. High values mean better tolerance by the cells, low ones harm at low concentration.

SMILES strings stand for the structures. A value given as a limit tells only on which side of the number the result lay.

The values that follow come from US20220280542A1, “PHOSPHORAMIDATES FOR THE TREATMENT OF HEPATITIS B VIRUS” (priority 2016, published 2022).

Holding throughout (type): cell-based
Series [1] is described as follows: Cytotoxicity (CC50) HepG2. Particulars: human, HepG2 cells.
Series [2] can be described thus: Cytotoxicity by XTT staining in the HBV efficacy assay. The note with it: human, HepG2.2.15 cells. How it is done: HepG2.2.15 cells (100 μL) in RPMI1640 medium with 10% fetal bovine serum was added to all wells of a 96-well plate at a density of 1×10^4 cells per well and the plate was incubated at 37° C. in an environment of 5% CO2 for 24 hours. Following incubation, six ten-fold serial dilutions of test compound prepared in RPMI1640 medium with 10% fetal bovine serum were added to individual wells of the plate in triplicate. Six wells in the plate received medium alone as a virus only control. The plate was incubated for 6 days at 37° C. in an environment of 5% CO2. The culture medium was changed on day 3 with medium containing the indicated concentration of each compound. One hundred microliters of supernatant was collected from each well for analysis of viral DNA by qPCR and cytotoxicity was evaluated by XTT staining of the cell culture monolayer on the sixth day.
The 50% cytotoxic concentration for the test materials are derived by measuring the reduction of the tetrazolium dye XTT in the treated tissue culture plates. XTT is metabolized by the mitochondrial enzyme NADPH oxidase to a soluble formazan product in metabolically active cells. XTT solution was prepared daily as a stock of 1 mg/mL in PBS. Phenazine methosulfate (PMS) stock solution was prepared at 0.15 mg/mL in PBS and stored in the dark at −20° C. XTT/PMS solution was prepared immediately before use by adding 40 μL of PMS per 1 mL of XTT solution. Fifty microliters of XTT/PMS was added to each well of the plate and the plate incubated for 2-4 hours at 37° C. The 2-4 hour incubation has been empirically determined to be within linear response range for XTT dye reduction with the indicated numbers of cells for each assay. Adhesive plate sealers were used in place of the lids, the sealed plate was inverted several times to mix the soluble formazan product and the plate was read at 450 nm (650 nm reference wavelength) with a Molecular Devices SpectraMax Plus 384 spectrophotometer. Data were collected by Softmax 4.6 software and imported into an Excel spreadsheet for analysis.
(Tetrazolium assays rely on reduction of a dye to a coloured formazan, in cell work by metabolically active cells.)

A short description of series [3]: Cytotoxicity (CC50) Huh-7. The note with it: human, Huh-7 cells.
Series [4] is described as follows: Cytotoxicity (CC50) BxPC3. Particulars: human, BxPC3 cells.
The next series in a line: Cytotoxicity (CC50) A549. Particulars: human, A549 cells.
The next series is described as follows: Cytotoxicity (CC50) Vero. Particulars: African green monkey, Vero cells.
The nature of another series: Cytotoxicity (CC50) CEM. Particulars: human, CEM cells.
The nature of another series: Cytotoxicity (CC50) H9c. Particulars: rat, H9c cells.
A short description of series [5]: Cytotoxicity (CC50) IEC-6. The note with it: rat, IEC-6 cells.
A further series is described as follows: Cytotoxicity (CC50) A204. Particulars: human, A204 cells.

For `Nc1ccn([C@@H]2CS[C@H](CO)O2)c(=O)n1` [3TC (Lamivudine), Lamivudine, reference compound], the CC50 in [1], in series [3] and in series [4] was greater than 400 µM each time. In addition, the CC50 at 6 days in [2] is greater than 10 µM.

For the compound `Cc1cn([C@H]2O[C@@H](CO)[C@H](O)[C@H]2F)c(=O)[nH]c1=O` [EIDD-02020, Clevudine, reference compound], the 50% cytotoxic concentration (CC50) (in series [1]; in “Cytotoxicity (CC50) A549”; in “Cytotoxicity (CC50) Vero”; in the series “Cytotoxicity (CC50) CEM”; in the series “Cytotoxicity (CC50) H9c”; in [3]) was greater than 400 µM each time. Besides, the cytotoxic concentration (CC50) (in series [4]; in series [5]; in “Cytotoxicity (CC50) A204”) was greater than 400 µM each time. The same compound yielded a cytotoxic concentration (CC50) at 6 days in series [2] greater than 100 µM.

For `Cc1cn([C@H]2O[C@@H](CO[P@@](=O)(N[C@@H](C)C(=O)OC(C)C)Oc3ccccc3)[C@H](O)[C@H]2F)c(=O)[nH]c1=O` [EIDD-02173], the CC50 was greater than 400 µM in series [1]; greater than 400 µM in “Cytotoxicity (CC50) A549”; greater than 400 µM in the series “Cytotoxicity (CC50) Vero”; 140 µM in the series “Cytotoxicity (CC50) CEM”; 344 µM in the series “Cytotoxicity (CC50) H9c”; greater than 400 µM in [3]. Besides, the CC50 in [4] is greater than 400 µM; in [5] it was 307 µM; in the series “Cytotoxicity (CC50) A204”, 330 µM. For the same compound, in series [2], the CC50 at 6 days was greater than 100 µM.

As to `Cc1cn([C@H]2O[C@@H](CO[P@](=O)(N[C@@H](C)C(=O)OC(C)C)Oc3ccccc3)[C@H](O)[C@H]2F)c(=O)[nH]c1=O` [EIDD-02174], the 50% cytotoxic concentration (CC50) in series [1] is greater than 400 µM; in the series “Cytotoxicity (CC50) A549”, greater than 400 µM; in “Cytotoxicity (CC50) Vero”, greater than 400 µM; in “Cytotoxicity (CC50) CEM” it was greater than 400 µM; in “Cytotoxicity (CC50) H9c” it was 311 µM; in series [3], 290 µM. The 50% cytotoxic concentration (CC50) in series [4] is greater than 400 µM; in series [5], 338 µM; in “Cytotoxicity (CC50) A204” it was 374 µM. For the same compound, the CC50 at 6 days in [2] was greater than 100 µM.

In turn, `Cc1cn([C@H]2O[C@@H](CO[P@@](=O)(N[C@@H](C)C(=O)OC(C)C)Oc3ccccc3)[C@H](O[P@@](=O)(N[C@@H](C)C(=O)OC(C)C)Oc3ccccc3)[C@H]2F)c(=O)[nH]c1=O` [EIDD-02308] gave a CC50 at 6 days in series [2] greater than 100 µM.

For `Cc1cn([C@H]2O[C@@H](CO[P@](=O)(N[C@@H](C)C(=O)OC(C)C)Oc3ccccc3)[C@H](O[P@](=O)(N[C@@H](C)C(=O)OC(C)C)Oc3ccccc3)[C@H]2F)c(=O)[nH]c1=O` [EIDD-02309], in series [2], the CC50 at 6 days is 85.1 µM.

With `Cc1cn([C@H]2O[C@@H](CO)C(O)C2F)c(=S)[nH]c1=O` (stereo partly drawn) [EIDD-02333-1], the cytotoxic concentration (CC50) at 6 days in series [2] is greater than 100 µM.

With `Cc1cn([C@H]2O[C@@H](CO[P@](=O)(N[C@@H](C)C(=O)OC(C)C)Oc3ccccc3)C(O)C2F)c(=S)[nH]c1=O` (stereo partly drawn) [EIDD-02334-1], in [2], the CC50 at 6 days is greater than 100 µM.

The compound `Cc1cn([C@H]2O[C@@H](CO[P@@](=O)(N[C@@H](C)C(=O)OC(C)C)Oc3ccccc3)C(O)C2F)c(=S)[nH]c1=O` (stereo partly drawn) [EIDD-02335-1] registered a CC50 at 6 days in [2] greater than 100 µM.
